Series [1] concerns SW620 cells. Kind of series: Cell viability (trypan blue exclusion) and proliferation (MTT). The format is cell-based, human. The method, then: Cellular viability (toxicity) and proliferation were quantified as described previously (Fraser et al., 1999, 2003b; Grimes et al., 1995). Briefly, cells were seeded into 35 mm plates at 3.5×10^4/plate (for toxicity) or 24-well plates at 2× 10^4/well (for proliferation) and allowed to settle overnight. The cells were incubated under control conditions or treated with the drug, with a change of medium every 24 h. Cell viability was determined by trypan blue exclusion assay. Proliferation was determined by the colorimetric 3-(4,5-dimethylthiazol-2-yl)-2,5-diphenyltetrazolium bromide (MTT) assay. A ‘standard curve’ was constructed showing linearity over the experimental range. Each biological repeat (treatment and control) was performed in triplicate.

Series [2] deals with Nav1.5 splice variant (neonatal and adult). Particulars: cited from earlier work.
Series [3] has as its system SW620 cells. The series can be described thus: Matrigel invasion assay. Particulars: for reduction in number of invaded cells compared to c-siRNA: 40 nM siRNA, invasion over 48 h. The format is cell-based, human. How it is done: For hypoxia, cells were maintained as above but in 1% O2 for up to 120 h in a dedicated incubator (Micro Galaxy, RS Biotech Laboratory Equipment Ltd, Irvine, UK).
(§1) Lipofectamine 2000 reagent (Invitrogen) was used as the transfection agent and the protocol was applied according to the manufacturer's instructions. […] Electrophysiological recordings of siRNA-treated cells were also performed in parallel at given time points and in random order. For these treatments, recordings were made from 19-37 cells from ≥4 different transfections with matching controls.
Thus, (i) insert filters (with 8 μm pores) were coated with 50 µl of 0.21 mg/ml Matrigel (BD Biosciences, Bedford, MA, USA); (ii) the chemotactic gradient was 0.1-10% FBS; and (iii) the cells were serum-starved for 24 hours and (iv) 10^5 cells were seeded onto each filter. After 48 hours, the insert was swabbed and then stained with crystal violet. The invaded cells in 12 non-overlapping fields of view were counted under ×400 magnification. […] Each treatment condition was tested 5-8 times.

Another series has as its system nNav1.5 protein. The series can be described thus: Western blot of nNav1.5 protein expression (NESO-pAb). The format is cell-based, human. The method, then:
Cells were washed with PBS containing 0.5 mM NaF, 0.1 mM Na3 VO4 (Sigma-Aldrich) and lysed in RIPA buffer (0.5M Tris-HCl, pH 7.4, 1.5M NaCl, 2.5% deoxycholic acid, 10% NP-40, 10 mM EDTA) (Merck-Millipore Ltd, Watford, UK) supplemented with an EDTA-free protease inhibitor cocktail (Roche Products Ltd, Welwyn Garden City, UK). Then, cells were vortexed for 30 mins at 4° C. The lysate was centrifuged (15,000 g) at 4° C. and supernatant collected for measurement of the protein concentration by a standard Bradford assay (Bio-Rad protein assay, Bio-Rad). After 15 minutes at 70° C. in SDS loading buffer (62.5 mM Tris-HCl, 20% glycerol, 2% SDS, 100 mM DTT, 0.0025% bromphenol blue, 10% B-mercaptoethanol; pH 6.8), 50 μg of protein per lane was separated by 7.5% SDS-polyacrylamide gel electrophoresis and electroblotted onto 0.45 μm nitrocellulose membrane (Thermo Scientific). Equal protein loading was controlled by Ponceau S staining (Sigma-Aldrich). Membranes were ‘blocked’ with 5% bovine serum albumin (BSA) in TBS+0.1% Tween-20 for 1 hour and probed for 20 hours with the following primary antibodies (diluted in TBS+0.1% Tween 20+1% BSA): i) NESO-pAb antibody for nNav1.5 (1 μl/ml); and (ii) anti-actinin antibody (1 μl/ml) as loading control (Sigma-Aldrich). […]
On the technique in general: Immunoblotting shows a protein as a band on a membrane.

A further series has as its system nNav1.5 mRNA. The series can be described thus: Real-time RT-PCR of nNav1.5 mRNA levels in SW620 cells. The format is cell-based, human. Conditions: for decrease in nNav1.5 mRNA levels in comparison to c-siRNA: 40 nM siRNA, 90 h after transfection. The method, then: Steps for polymerase chain reactions (PCRs) were as described before (Fraser et al., 2005). Conventional PCRs were performed using HotStarTaq Plus technology (Qiagen Ltd, Manchester, UK) in a Primus PCR machine (MWG-Biotech, Eurofins Genomics, Ebersberg, Germany). Quantitative real-time PCRs were carried out utilising SYBR Green technology (Qiagen) and a DNA Engine Opticon 2 system (MJ Research, Bio-Rad Laboratories Ltd, Hamel Hempstead, UK). Duplicate reactions on each sample were carried out simultaneously for target and reference genes. Control PCRs were carried out routinely by including non-target (-RT) reactions and monitoring melting curves. The primer pairs used were as follows:
The mRNA levels were quantified using the comparative 2^−ΔΔC(t) method (Livak and Schmittgen, 2001).
as §1

In series [4] the target is persistent current, INaP, of VGSC, especially Nav1.5 (Canis lupus familiaris, UniProt Q865W3). Particulars: Antzelevitch et al., 2004; read-out: IC50 for block of hypoxia-induced persistent current INaP; cited from earlier work.
Chain of persistent current, INaP, of VGSC, especially Nav1.5 (Q865W3 1-2013): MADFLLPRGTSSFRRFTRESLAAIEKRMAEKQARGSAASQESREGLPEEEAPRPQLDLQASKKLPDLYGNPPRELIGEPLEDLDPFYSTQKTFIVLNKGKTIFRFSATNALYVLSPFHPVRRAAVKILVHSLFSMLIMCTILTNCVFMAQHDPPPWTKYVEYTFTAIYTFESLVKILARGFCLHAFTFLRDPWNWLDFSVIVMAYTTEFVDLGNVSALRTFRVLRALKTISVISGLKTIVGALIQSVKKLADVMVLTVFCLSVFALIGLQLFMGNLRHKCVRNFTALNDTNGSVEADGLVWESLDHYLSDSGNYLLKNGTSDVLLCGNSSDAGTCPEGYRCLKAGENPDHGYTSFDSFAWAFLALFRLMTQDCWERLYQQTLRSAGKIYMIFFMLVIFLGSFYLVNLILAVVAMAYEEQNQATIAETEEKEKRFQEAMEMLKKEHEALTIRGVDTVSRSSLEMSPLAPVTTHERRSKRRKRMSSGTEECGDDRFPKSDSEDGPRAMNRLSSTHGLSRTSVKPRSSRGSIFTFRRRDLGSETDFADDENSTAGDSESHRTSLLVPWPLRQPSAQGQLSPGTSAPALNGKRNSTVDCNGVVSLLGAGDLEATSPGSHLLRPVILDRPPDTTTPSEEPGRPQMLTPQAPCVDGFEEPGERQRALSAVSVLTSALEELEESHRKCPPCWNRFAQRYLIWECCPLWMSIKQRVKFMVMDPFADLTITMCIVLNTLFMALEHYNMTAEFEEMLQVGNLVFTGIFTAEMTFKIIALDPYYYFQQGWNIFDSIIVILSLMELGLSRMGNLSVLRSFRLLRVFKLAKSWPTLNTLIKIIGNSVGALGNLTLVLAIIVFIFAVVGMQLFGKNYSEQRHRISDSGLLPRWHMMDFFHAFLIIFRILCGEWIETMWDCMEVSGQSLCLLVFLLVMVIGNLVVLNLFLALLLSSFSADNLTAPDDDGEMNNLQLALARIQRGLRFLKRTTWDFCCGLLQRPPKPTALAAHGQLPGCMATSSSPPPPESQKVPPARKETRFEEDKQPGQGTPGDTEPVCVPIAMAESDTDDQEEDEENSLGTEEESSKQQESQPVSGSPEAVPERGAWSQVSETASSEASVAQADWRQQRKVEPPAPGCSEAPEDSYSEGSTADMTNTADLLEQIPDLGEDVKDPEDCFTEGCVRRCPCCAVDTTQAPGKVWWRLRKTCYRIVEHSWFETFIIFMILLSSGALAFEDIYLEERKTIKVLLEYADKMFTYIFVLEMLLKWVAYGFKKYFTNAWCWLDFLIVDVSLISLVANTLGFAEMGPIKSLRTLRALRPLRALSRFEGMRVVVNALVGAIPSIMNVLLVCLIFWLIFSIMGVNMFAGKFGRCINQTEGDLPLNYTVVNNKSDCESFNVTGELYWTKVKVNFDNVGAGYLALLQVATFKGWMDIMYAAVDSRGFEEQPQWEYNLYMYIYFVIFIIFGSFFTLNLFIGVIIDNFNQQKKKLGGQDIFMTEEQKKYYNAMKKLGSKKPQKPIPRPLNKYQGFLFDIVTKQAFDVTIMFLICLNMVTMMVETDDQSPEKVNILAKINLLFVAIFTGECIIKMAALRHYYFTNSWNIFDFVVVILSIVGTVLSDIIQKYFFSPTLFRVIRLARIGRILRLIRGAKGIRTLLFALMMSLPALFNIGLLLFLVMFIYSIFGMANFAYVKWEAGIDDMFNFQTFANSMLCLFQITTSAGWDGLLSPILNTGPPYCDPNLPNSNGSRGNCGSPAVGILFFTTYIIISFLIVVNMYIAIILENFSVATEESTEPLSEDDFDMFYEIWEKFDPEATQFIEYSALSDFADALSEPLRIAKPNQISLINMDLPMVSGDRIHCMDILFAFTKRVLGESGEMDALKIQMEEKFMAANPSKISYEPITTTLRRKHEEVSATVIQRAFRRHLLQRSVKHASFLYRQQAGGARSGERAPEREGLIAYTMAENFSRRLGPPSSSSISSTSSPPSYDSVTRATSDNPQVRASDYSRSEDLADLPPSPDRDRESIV
The subject of series [5] is VGSC currents (nNav1.5 / aNav1.5) in SW620 cells. The series can be described thus: Whole-cell patch-clamp recording of VGSC currents in siRNA-transfected SW620 cells. The format is cell-based, human. Particulars: for proportion of cells demonstrating VGSC currents / peak VGSC current density: SW620 cells after siRNA transfection; for peak VGSC current density: median (25%-75% interquartile range); for Activation V1/2 (half-activation voltage) / Activation k (activation slope factor) / Inactivation V1/2 (half-inactivation voltage) / Inactivation k (inactivation slope factor) / Tinactivation (inactivation time constant) / Tpeak (time to peak): SW620 cells, 40 nM siRNA, 96 h transfection, 24 h serum starvation, mean ± SEM.
Description: Details of the patch pipettes, solutions, and the whole-cell recording protocols were as described previously (e.g. Laniado et al., 1997; 2001; Fraser et al., 2003a; Grimes et al, 1995). In brief, patch pipettes (tip resistances, ˜5 M Ω) were filled with a solution designed to block the outward K^+ currents; the composition was as follows (in mM): NaCl 5, CsCl 145, MgCl2 2, CaCl2) 1, HEPES 10 and EGTA 11, adjusted to pH 7.4 with 1 M CsOH. The estimated intracellular free Ca^2+ concentration was ˜15 nM (Laniado et al., 2001). Whole-cell membrane currents were recorded from cells that appeared ‘isolated’ in culture, using an Axopatch 200B amplifier (Axon Instruments, CA, USA). Analogue signals were filtered at 10 kHz using a low-pass Bessel filter, and series resistance errors were compensated by >90%. Electrophysiological signals were sampled at 50 kHz and digitised using an interface (Digidata 1200). Data acquisition and analysis of whole-cell currents were performed using pClamp software (Axon Instruments). A holding potential of −100 mV was applied, unless indicated otherwise. Standard voltage-clamp protocols were used to study the electrophysiological properties of the VGSC currents. There was a noticeable decrease in current amplitude with time in culture, also apparent in immunocytochemistry (FIG. 7). All routine recordings were done 24 hours after (re) plating and 24 hours of serum starvation (to match the condition of the invasion assays).
Conductance-voltage relationships were determined using the equation:
[formula] • where G is the conductance; I the current amplitude; V the test pulse; and Vrev the theoretical Na^+ reversal potential. Normalized curves for voltage dependence of steady-state activation and inactivation were fitted to a Boltzmann function of the form:
[formula] • where Gmax is the maximal conductance; Vm is the membrane voltage; V1/2 is the voltage at which the current is half activated/inactivated, and k is the slope factor of voltage sensitivity. For the time course of recovery from inactivation, the data was plotted as a function of recovery time and fitted to the following single exponential equation:
[formula] • where I is normalized current, t is time, t is the time constant, A is the amplitude of the normalized current, and C is the asymptote. More details can be found in Onkal et al. (2008).
as §1
For orientation: The patch-clamp technique gives a direct electrical read-out from membranes.

“And” between values parts separate entries of the source, which are not always exact repeats. Identical values can stand only once. Like-named read-outs stand apart in the source and are kept apart here.

For `NC1=N[C@H](O)[C@H]2[C@H]3O[C@]4(O)O[C@@H]([C@@H](O)[C@@]2(N1)[C@@H]4O)[C@]3(O)CO` [TTX, Tetrodotoxin], the effect on proliferation entry in the series with SW620 cells [1] is “not affected”. Moreover, the “block of currents generated by either Nav1.5 splice variant” value in series [2] is over 80%. For the same compound, in the series on SW620 cells [3], the “effect of TTX on invasiveness” value is reported as “no effect”; the effect on invasiveness entry was “no effect”; the “reduction of invasiveness by TTX” value was 32% and 34%; the “reduction of invasiveness cf. hypoxia control” value was found to be 45%. This compound also showed an inhibition of invasiveness in the series on SW620 cells [3] (20 µM) of 37%. Also, the “effect on nNav1.5 protein expression” value in the series on nNav1.5 protein was “no effect”. For the same compound, in the series on nNav1.5 mRNA, the “effect on hypoxia-induced increase of nNav1.5 mRNA expression” value is “blocked this increase” and the “effect on nNav1.5 mRNA expression” value is recorded as “Lack of effect”.
Take `COc1ccccc1OCC(O)CN1CCN(CC(=O)Nc2c(C)cccc2C)CC1` (stereo not drawn) [ranolazine]: in the series on SW620 cells [1] (up to 10 µM, normoxia or hypoxia (not shown)), the effect on proliferation entry is “not affected”. Also, the “reduction in invasion cf. hypoxia control” value with SW620 cells [3] (5 μM, hypoxia (1% O2, 72 h), SW620 cells) worked out at 37%. The compound further returned a reduction in invasion in the series on SW620 cells [3] (5 μM, normoxia, SW620 cells) of 9%. Further, the “inhibition of invasion, dose dependence” value in the series with SW620 cells [3] (1-10 μM, hypoxia, control/c-siRNA-treated SW620 cells) is “dose-dependent manner with two-fold difference over 1-10 μM”. In the series on SW620 cells [3] (up to 10 μM, hypoxia, n3-siRNA pre-treated SW620 cells), the “effect on invasiveness in cells pre-treated with n3-siRNA” value is “no additional effect”. Besides, the IC50 in series [4] was 5.9 µM. Besides, the “effect on nNav1.5 protein expression” value with nNav1.5 protein (5 μM, normoxia and hypoxia, SW620 cells) was “no effect”. Further, the “effect on hypoxia-induced increase of nNav1.5 mRNA expression” value with nNav1.5 mRNA (5 μM, hypoxia 1% O2 48 h, SW620 cells) is “blocked this increase”. Moreover, the “effect on nNav1.5 mRNA expression” value with nNav1.5 mRNA (5 μM, normoxia, SW620 cells) is “Lack of effect”.
Consider “AGGUAGUGUAAUCGCCUUG (listed as RNA, chemistry not given here) [c-siRNA, non-targeting control siRNA supplied by Eurofins]”, for which, in the series with SW620 cells [3] (SW620 cells, normoxia or hypoxia (1% O2, 72 h)), the effect on invasiveness entry was “no effect”.
Turning to CUAGGCAAUUUGUCGGCUC [n1-siRNA], in series [5], the “proportion of cells demonstrating VGSC currents” value (“proportion” below) is 42% and the “peak VGSC current density” value is reported as 0.0 (0-3.1) pA/pF. The “reduction in number of invaded cells compared to c-siRNA” value (from here on “reduction in number of invaded cells”) with SW620 cells [3] (SW620 cells, normoxia) was 64%. In addition, the “decrease in nNav1.5 mRNA levels in comparison to c-siRNA” value (“decrease in nNav1.5 mRNA levels” below) with nNav1.5 mRNA (SW620 cells) amounted to 50±12%.
In the case of GAGUCCUGAGAGCUCUAAA [n3-siRNA], in series [5], the “proportion” value was determined as 51%, the “peak VGSC current density” value is recorded as 1.0 (0-6.8) pA/pF, the “Activation V1/2 (half-activation voltage)” value was −24.7 ± 2.0 mV and the “Activation k (activation slope factor)” value was 6.1 ± 0.3 mV. In addition, in series [5], the “Inactivation V1/2 (half-inactivation voltage)” value is −86.5 ± 1.2 mV, the “Inactivation k (inactivation slope factor)” value is reported as −5.0 ± 0.4 mV, the “Tinactivation (inactivation time constant)” value was determined as 0.80 ± 0.10 ms and the “Tpeak (time to peak)” value was 0.66 ± 0.04 ms. Also, in the series on SW620 cells [3] (SW620 cells, normoxia), the “reduction in number of invaded cells” value came to 73%. For the same compound, the “hypoxia-induced increase in invasiveness” value in the series on SW620 cells [3] (SW620 cells, hypoxia 1% O2 72 h, siRNA-treated) is reported as “completely suppressed”. The “decrease in nNav1.5 mRNA levels” value in the series with nNav1.5 mRNA (SW620 cells) turned out to be 32±10%.
As for “GUCUCAGCCUUACGCACCU (listed as RNA, chemistry not given here) [a-siRNA, siRNA targeting 'adult' Nav1.5 (aNav1.5)]”, in series [5], the “proportion” value amounted to 58%, the “peak VGSC current density” value was 3.5 (0-7.5) pA/pF, the “Activation V1/2 (half-activation voltage)” value is −28.1 ± 1.7 mV and the “Activation k (activation slope factor)” value was 6.7 ± 0.6 mV. Moreover, in series [5], the “Inactivation V1/2 (half-inactivation voltage)” value is listed as −95.6 ± 2.1 mV, the “Inactivation k (inactivation slope factor)” value is −6.7 ± 0.7 mV, the “Tinactivation (inactivation time constant)” value was determined as 1.35 ± 0.19 ms and the “Tpeak (time to peak)” value amounted to 0.90 ± 0.06 ms. Also, the “reduction in number of invaded cells” value with SW620 cells [3] (SW620 cells, normoxia) is reported as 17%.
As for UAUCAUGGCGUAUGUAUCA [n2-siRNA], in series [5], the “proportion” value was found to be 33% and the “peak VGSC current density” value is 0.0 (0-2.4) pA/pF. In the series on SW620 cells [3] (SW620 cells, normoxia), the “reduction in number of invaded cells” value worked out at 45%. The “decrease in nNav1.5 mRNA levels” value in the series with nNav1.5 mRNA (SW620 cells) was determined as 85±10%.

One may read the IC50 as the point on the concentration scale where inhibition reaches its midpoint.
